Data: paper PMC12365674, “Diverse metabolites with anti-psoriasis potential from different fermentations of the fungicolous fungus Xylarialongipes HFG1018” (IMA Fungus, 2025)
“Also recorded” adds a separate entry of the source. Read-outs that look alike come from different tables or passages of the source.

Experiments:
HaCaT cells [1] = assay: Antiproliferative activity against HaCaT cells (CCK-8); format: cell-based; details: read-out: IC50 against the proliferation of HaCaT cells
Protocol: (§1) As previously described, the immunosuppressive activity, lymphocyte viability, and antiproliferative activity against HaCaT cells were evaluated using the CCK-8 method ([Zhao et al. 2023], [2024]).
(§2) In the immunosuppressive and lymphocyte viability, the primary tested concentration of all compounds was 20.0 μM, and dexamethasone (Dex) (c = 2.0 μM) was used as a positive control. In the antiproliferative activity against HaCaT cells, the primary tested concentration of all compounds was 40 μM, and the positive control was methotrexate (MTX) (c = 40.0 μM). When the inhibition rates are greater than 50%, the IC50 values of active compounds will be further tested and calculated. All experiments were performed in triplicate.

[2] = system: ConA-induced T lymphocytes; assay: Anti-proliferative activity against ConA-induced T lymphocytes (CCK-8); format: cell-based; details: Mus musculus, T-lymphocyte; for inhibition at 20 µM: c = 20 μM, ConA-induced T lymphocytes, read-out: Inhibition rate (%) T; for IC50: induced proliferation of T lymphocytes (ConA), CCK-8, read-out: T cells IC50
Protocol: as §1, §2

[3] = system: LPS-induced B lymphocytes; assay: Anti-proliferative activity against LPS-induced B lymphocytes (CCK-8); format: cell-based, mouse; details: Mus musculus, Lymphocyte; for inhibition at 20 µM: c = 20 μM, LPS-induced B lymphocytes, read-out: Inhibition rate (%) B; for IC50: induced proliferation of B lymphocytes (LPS), CCK-8, read-out: B cells IC50
Protocol: as §1, §2

lymphocytes [4] = assay: Lymphocyte viability (CCK-8); format: cell-based, mouse; details: c = 20 μM
Protocol: as §1, §2

[5] = system: ConA-induced T lymphocytes; assay: Anti-proliferative activity against ConA-induced T lymphocytes (CCK-8); format: cell-based; details: Mus musculus, T-lymphocyte, c = 40 μM, read-out: Inhibition rate (%) T
[6] = system: LPS-induced B lymphocytes; assay: Anti-proliferative activity against LPS-induced B lymphocytes (CCK-8); format: cell-based; details: Mus musculus, Lymphocyte, c = 40 μM, read-out: Inhibition rate (%) B
lymphocytes [7] = assay: Lymphocyte viability (CCK-8); format: cell-based, mouse; details: c = 40 μM
[8] = system: induced T cells (Con A 5 μg/mL); assay: EdU proliferation assay, induced T cells; format: cell-based, mouse; details: c = 20 μM; relative to the model group
Protocol: (§3) EdU fluorescence labeling for cell proliferation of induced T/B lymphocytes (2 × 10^5 cells/well) and HaCaT cells (1 × 10^4 cells/well) of active compounds 10, 19, 23, 32, 38, and 41 (final concentration 10 or 20 μM) was performed as previously reported ([Biram and Shulman 2020]; [Zhao et al. 2024]). EdU (HF488) (the Click-iT™ EdU Flow Cytometry Assay Kit, APExBIO, USA) was added 24 h (final concentration 50 μM, T and B cells) and 4 h (final concentration 10 μM, HaCaT cells) before harvesting the cells. All procedures were performed according to the manufacturer’s instructions for the click reaction. EdU-positive cells and proliferating phase cells were analyzed with a fluorescence microscope.

[9] = system: induced B cells (LPS 15 μg/mL); assay: EdU proliferation assay, induced B cells; format: cell-based, mouse; details: c = 20 μM; relative to the model group
Protocol: as §3

IFN-γ = assay: Cytokine analysis by ELISA of induced T cells: IFN-γ; format: cell-based, mouse; details: ConA-induced T cells, 48 h; all sample groups; P < 0.0001 vs. model
Protocol: (§4) The mononuclear cell suspensions (2 × 10^5 cells/well) were cultured with ConA (5 μg/mL) in 96-well plates, and indicated concentrations of compounds 2, 15, and 32 were added simultaneously. After a 48-hour culture period, cytokines in the supernatants were quantified using mouse IFN-γ, IL-2, and IL-17A ELISA kits (Mabtech, Sweden), following the manufacturer’s protocol ([Jing et al. 2021]; [Zhao et al. 2024]).

IL-17A = assay: Cytokine analysis by ELISA of induced T cells: IL-17A; format: cell-based, mouse; details: 40 μM; ConA-induced T cells, 48 h; P < 0.05 vs. model
Protocol: as §4

[10] = Lymphocyte viability (CCK-8); format: cell-based, mouse; details: mouse, lymphocytes; lymphocyte viability; CCK-8
Protocol: as §1, §2

HaCaT cells [11] = assay: EdU proliferation assay, HaCaT cells; format: cell-based; details: c = 20 μM; compared to the control group
Protocol: as §3

[12] = system: NF-κB p65 phosphorylation; assay: Immunofluorescence of p-p65/p65 in HaCaT cells; format: cell-based; details: 31.0 μM, 36 h, P < 0.0001 vs. Con
Protocol: The immunofluorescence protocol was performed using the reported method ([Zhao et al. 2024]). HaCaT cells (2.0 × 10^5 cells/well) were plated onto 6-well plates with glass coverslips and adhered overnight (12 h) before compound addition. After treatment with active compounds 10 (final concentration 31 μM) and 32 (final concentration 27 μM) for 36 h, the supernatant was removed, and the cells were washed twice with PBS, fixed with 4% paraformaldehyde for 15 min, and then washed with PBS three times. After blocking, incubated with NF-κB p65 (p65)/phosphorylated NF-κB p65 (p-p65) antibodies and secondary antibodies (Servicebio, China). Then, cells were counterstained with 4,6-[…]-2-phenylindole (DAPI) for 5 min. After the PBS washing, fluorescent seal liquid was added, and the plate was monitored under an imaging system (Pannoramic MIDI, 3Dhistech, Hungary). The nucleus is blue, and positive cells are green (p-p65) or red (p65). The immunofluorescence areas for each indicator were analyzed in ImageJ.

3-methoxy-2-phenethyl-1H-pyrrole-1-carbaldehyde [Compound 35]
IC50 (HaCaT cells [1]): 31.5 ± 2.4 µM

CC12CCOC(C1)C1=C(CCC3C(C)(C(=O)O)CCCC13C)C2 (stereo not drawn) [Compound 1, 11α,16-Epoxy-isopimar-8(9)-en-19β-oic acid]
inhibition at 20 µM [2]: 11.4 ± 6.4%
inhibition at 20 µM [3]: 18.9 ± 7.5%
Cell validity (%) (lymphocytes [4]): 86.3 ± 2.1%
inhibition at 40 µM [5]: 16.5 ± 1.5%
inhibition at 40 µM [6]: 20.4 ± 6.3%
Cell validity (%) (lymphocytes [7]): 90.7 ± 4.0%

C[C@]1(CCO[C@H]2O[C@H](CO)[C@@H](O)[C@H](O)[C@@H]2O)CCC2=C(CC[C@H]3[C@@](C)(C(=O)O)CCC[C@]23C)C1 [Compound 2, 16-α-D-Mannopyranosyloxyisopimar-8(9)-en-19-oic acid]
inhibition at 20 µM [2]: 23.8 ± 0.9%
inhibition at 20 µM [3]: 24.9 ± 8.6%
Cell validity (%) (lymphocytes [4]): 100.0 ± 2.4%
proliferation of induced T cells measured by EdU [8]: significantly suppressed the proliferation
proliferation of induced B cells measured by EdU [9]: significantly suppressed the proliferation
IFN-γ secretion (IFN-γ): significant reduction; also recorded: significantly reduced
IL-17A levels (IL-17A): markedly lowered
inhibition at 40 µM [5]: 32.8 ± 6.8%
inhibition at 40 µM [6]: 30.6 ± 6.2%
Cell validity (%) (lymphocytes [7]): 89.8 ± 7.9%

C[C@]1(CCO[C@H]2O[C@H](CO)[C@@H](O)[C@H](O)[C@H]2O)CCC2=C(CC[C@H]3[C@@](C)(C(=O)O)CCC[C@]23C)C1 [Compound 3, 16-α-D-Glucopyranosyloxyisopimar-8(9)-en-19-oic acid]
inhibition at 20 µM [2]: 15.7 ± 7.9%
inhibition at 20 µM [3]: 11 ± 4.9%
Cell validity (%) (lymphocytes [4]): 87.7 ± 7.4%
inhibition at 40 µM [5]: 26.5 ± 3.3%
inhibition at 40 µM [6]: 22.6 ± 9.6%
Cell validity (%) (lymphocytes [7]): 89.9 ± 4.4%

CCC1CCc2occc(=O)c2C1O (stereo not shown) [Compound 9, 6-ethyl-5-hydroxy-5,6,7,8-tetrahydro-4H-chromen-4-one]
IC50 (HaCaT cells [1]; Homo sapiens, HaCaT): 35 ± 3.1 µM

CCC1=Cc2c(occ(COC)c2=O)CC1 [Compound 10, 6-ethyl-3-(methoxymethyl)-7,8-dihydro-4H-chromen-4-one]
IC50 [2]: > 20 µM
IC50 [3]: 8 ± 0.7 µM
CC50 [10]: > 20 µM
IC50 (HaCaT cells [1]; Homo sapiens, HaCaT): 30.9 ± 2.7 µM
proliferation rates of HaCaT cells measured by EdU (HaCaT cells [11]): significantly reduced
NF-κB activation (ratio p-p65/p65) [12]: significantly attenuated NF-κB activation

CCc1ccc2occ(COC)c(=O)c2c1 [Compound 11, 6-ethyl-3-(methoxymethyl)-4H-chromen-4-one]
IC50 [2]: > 20 µM
IC50 [3]: 20 ± 1.5 µM
CC50 [10]: > 20 µM

CC[C@@]1(O)CCc2occ(COC)c(=O)c2[C@@H]1O [Compound 13, (5S,6R)-6-ethyl-5,6-dihydroxy-3-(methoxymethyl)-5,6,7,8-tetrahydro-4H-chromen-4-one]
IC50 (HaCaT cells [1]; Homo sapiens, HaCaT): 31.1 ± 2.6 µM

C[C@]1(CCO[C@H]2O[C@H](CO)[C@@H](O)[C@H](O)[C@@H]2O)CC[C@H]2C(=CC[C@@H]3[C@]2(C)CCC[C@]3(C)C(=O)O)C1 [Compound 16, 16-α-D-mannopyranosyloxyisopimar-7-en-19-oic acid]
inhibition at 20 µM [2]: 13.1 ± 2.7%
inhibition at 20 µM [3]: 19.3 ± 4.6%
Cell validity (%) (lymphocytes [4]): 101.8 ± 6.9%
inhibition at 40 µM [5]: 20.7 ± 4.3%
inhibition at 40 µM [6]: 20.5 ± 10.6%
Cell validity (%) (lymphocytes [7]): 96.2 ± 1.1%

C[C@]1(CCO[C@H]2O[C@H](CO)[C@@H](O)[C@H](O)[C@H]2O)CC[C@H]2C(=CC[C@@H]3[C@]2(C)CCC[C@]3(C)C(=O)O)C1 [Compound 17, 16-α-D-glucopyranosyloxyisopimar-7-en-19-oic acid]
inhibition at 20 µM [2]: 10.1 ± 4.4%
inhibition at 20 µM [3]: 11.5 ± 3.1%
Cell validity (%) (lymphocytes [4]): 94.0 ± 5.6%
inhibition at 40 µM [5]: 16.3 ± 4.3%
inhibition at 40 µM [6]: 20.7 ± 6.9%
Cell validity (%) (lymphocytes [7]): 100.0 ± 8.5%

COc1ccc2oc(C)cc(=O)c2c1O [Compound 19, 5-hydroxy-6-methoxy-2-methyl-4H-1-benzopyran-4-one]
IC50 (HaCaT cells [1]; Homo sapiens, HaCaT): 29.7 ± 3.3 µM
proliferation rates of HaCaT cells measured by EdU (HaCaT cells [11]): significantly reduced

COc1cccc2c1C(=O)O[C@@H](C)C2 [Compound 22, (S)-8-methoxy-3-methylisochroman-1-one]
IC50 (HaCaT cells [1]; Homo sapiens, HaCaT): 32.3 ± 1.5 µM
